What was measured:
[1] = system: MMP-9; assay: Ovalbumine model, MMP-9 expression, zymography and immunostaining; assay type: in vivo, BALB/c mice; settings: inhalation 5 mM; non-treatment allergic animal 100 %
Experimental: (§1) In this long-term experiment, 6-8 week old BALB/c female mice were sensitized on days 1 and 8 by intra-peritoneal injection (i.p.) of ovalbumine (10 μg) (Sigma-Aldrich, Schnelldorf, Germany) adsorbed to 2 mg aluminum hydroxide (AlumInject; Perbio, Erembodegem, Belgium). Mice were divided into three groups. In Group 1, a control group was only exposed to saline nebulization by aerosol. The other 2 groups were subjected to ovalbumine (1%) nebulization. Before each challenge with ovalbumine, mice were either exposed to saline nebulization (Group 2) or KMUP-1 nebulization (5 mM) for 30 min by aerosol (Group 3).
The gelatinolytic activity of MMP-9 was measured by gelatin zymography as described previously (Cataldo D D, et al., 2002). Briefly, BALF (10 μl) was subjected to electrophoresis in 10% polyacrylamide gel containing gelatin (1 mg/ml). The gel was washed in 2.5% Triton X-100 to permit re-naturation of gelatinases and stained with Coomassie blue after overnight incubation. Destaining visualized clear zones of lysis against a blue background indicated the gelatinase activity (Hibbs, M S, et al., 1985).
The lung tissues were homogenized, washed with PBS and incubated in lysis buffer in addition to a protease inhibitor cocktail (Sigma, St. Louis, Mo.) to obtain extracts of lung proteins. A Western blot analysis was performed as described previously (Wu B N, et al., 2006). The samples were loaded to 10% SDS-PAGE gels and were separated at 120 V for 90 min. The blots were incubated with anti-eNOS antibody diluted at a ratio of 1:500, anti-sGCα1 antibody diluted at a ratio of 1:2000, anti-PKG antibody diluted at a ratio of 1:500, anti-VCAM-1 antibody diluted at a ratio of 1:500, anti-ICAM-1 antibody diluted at a ratio of 1:500, and anti-MMP-9 antibody diluted at a ratio of 1:600 overnight at 4° C. The membranes were stripped and re-blotted with anti-actin antibody (Sigma, St. Louis, Mo.) to verify the equal loading of protein in each lane.
Immunohistochemical analysis of eNOS enhancement by KMUP-1 was performed as follows. The lungs were perfused with saline followed by 10% formalin and then placed in 10% formalin for paraffin embedding. The lung tissues were cut into […] sections onto slides, dewaxed in 100% xylene, and then re-hydrated in graded alcohol solutions. Throughout the procedures, slides were washed as appropriate in PBS. Antigen retrieval was performed by microwave treatment for eNOS immunostaining. Sections were treated with 3% H2O2 (10 min) to inhibit endogenous peroxidases and incubated with normal serum (60 min) to reduce nonspecific binding of secondary antibodies. Sections were then incubated at 4° C. overnight with eNOS antibodies. After washing off unbounded primary antibodies, sections were incubated with secondary biotinylated antibodies against mouse or rabbit (DAKO Co., Japan) (60 min), followed by incubation in avidin/biotin/horseradish peroxidase complex (DAKO Co., Japan) (30 min) Subsequently, peroxidase activity was visualized by incubation (3 min) with 0.05% 3,3′-diaminobenzidine (DAKO Co., Japan), which gives a brown reaction product. The reaction was stopped by washing with water. The slides were counterstained with hematoxylin. For immunostaining of MMP-9 in lung tissue, the de-paraffinized 3-5 μm sections of lung tissue was performed as above eNOS, but using MMP-9 antibody.

[2] = system: IL-13; assay: Ovalbumine model, plasma IL-13 (ELISA); assay type: in vivo, mice; settings: OVA-sens, OVA-sens alone 35 ± 6
Experimental: as §1

[3] = system: BALF cells; assay: Ovalbumine model, bronchoalveolar lavage cell counts; assay type: in vivo, BALB/c mice; settings: inhalation 5 mM; for Neurophil: OVA 1.0 ± 0.2; for Lymphocyte / monocyte: OVA 2.4 ± 0.3; for (Table 5) / Eosinophil: OVA 37.2 ± 2.8; for Total cells: OVA 65.3 ± 3.4
Experimental: as §1
After the sacrifice of mice, a cannula was placed in the trachea for bronchoalveolar lavage by gentle manual aspiration, using cold PBS-EDTA (0.05 mM, 1 ml) (Calbiochem, Darmstadt, Germany) as previously described (Cataldo D D, et al., 2002). The broncho alveolar lavage fluid (BALF) was centrifuged at 4° C. for 10 min (1200 rpm). The supernatant was frozen at −80° C. for protein assessment and the cell pellet was resuspended in PBS-EDTA (0.05 mM, 1 ml). Total cell counts were performed manually using a thoma chamber. The differential cell counts were performed using morphologic criteria on cytocentrifuged preparations (Cytospin) after staining with Diff-Quick (Dade, Belgium). Differential cell counts were performed by one blinded observer unaware of the experimental treatment.

[4] = system: iNOS; assay: Ovalbumine model, iNOS expression; assay type: in vivo, BALB/c mice; settings: non-treatment allergic animal 100 %
[5] = system: ROCKII; assay: Protein expression (optical density %) after KMUPs salts, ROCKII; assay type: cell-based; settings: 10 μM, 120 min; without treatment control 100 %
[6] = system: IL-5; assay: Ovalbumine model, plasma IL-5 (ELISA); assay type: in vivo, mice; settings: OVA-sens, OVA-sens alone 43 ± 6
Experimental: as §1

[7] = system: PDE-5A; assay: Protein expression (optical density %) after KMUPs salts, PDE-5A; assay type: cell-based; settings: 10 μM, 120 min; without treatment control 100 %
[8] = system: eNOS; assay: Protein expression (optical density %) after KMUPs salts, eNOS; assay type: cell-based; settings: 10 μM, 120 min; without treatment control 100 %
[9] = system: BALF cells; assay: Ovalbumine model, bronchoalveolar lavage cell counts; assay type: in vivo, BALB/c mice; settings: oral 2.5 mg Kg^−1; for Neurophil: OVA 1.0 ± 0.2; for Lymphocyte / monocyte: OVA 2.4 ± 0.3; for (Table 5) / Eosinophil: OVA 37.2 ± 2.8; for Total cells: OVA 65.3 ± 3.4
[10] = system: MMP-9; assay: Ovalbumine model, MMP-9 expression, zymography and immunostaining; assay type: in vivo, BALB/c mice; settings: oral 2.5 mg Kg^−1; non-treatment allergic animal 100 %

Row | SMILES | MMP-9 [1] | Neurophil [3] | Lymphocyte [3] | monocyte [3] | (Table 5) [3] | Eosinophil [3] | Total cells [3] | iNOS ([4]; inhalation 5 mM) | ROCKII protein expression, optical densitivity % [5] | PDE-5A protein expression, optical densitivity % [7] | eNOS protein expression, optical densitivity % [8] | iNOS ([4]; oral 2.5 mg Kg^−1) | Neurophil [9] | Lymphocyte [9] | monocyte [9] | (Table 5) [9] | Eosinophil [9] | Total cells [9] | MMP-9 [10] | also measured
1 | COc1ccccc1N1CCN(CCn2cnc3c2c(=O)n(C)c(=O)n3C)CC1.Cl [KMUP-2 HCl, 7-[2-[4-(2-methoxybenzene)piperazinyl]ethyl]-1,3-dimethylxanthine hydrochloride] | 40 ± 3.7% | 1.0 ± 0.4 × 10^4 cell/ml | 1.2 ± 3.7 × 10^4 cell/ml | 1.2 ± 3.7 × 10^4 cell/ml | 25 ± 2.2 × 10^4 cell/ml | 25 ± 2.2 × 10^4 cell/ml | 51.0 ± 0.4 × 10^4 cell/ml | 47 ± 8.6% | 40 ± 3.7% | 68 ± 5.3% |  |  |  |  |  |  |  |  |  | IL-13 ([2]; inhalation 5 mM): 15 ± 3 pg/mL; IL-5 ([6]; inhalation 5 mM): 32 ± 6 pg/mL
2 | Cn1c(=O)c2c(ncn2CCN2CCN(c3ccc([N+](=O)[O-])cc3)CC2)n(C)c1=O.O=C(O)c1cccnc1 [KMUP-3-nicotinic acid, 7-[2-[4-(4-nitrobenzene)piperazinyl]ethyl]-1,3-dimethylxanthine-Nicotinic acid] |  |  |  |  |  |  |  |  | 43 ± 1.6% | 60 ± 4.1% | 145 ± 7.5% |  |  |  |  |  |  |  |  | 
3 | Cl.Cn1c(=O)c2c(ncn2CCN2CCN(c3ccc([N+](=O)[O-])cc3)CC2)n(C)c1=O [KMUP-3 HCl, 7-[2-[4-(4-nitrobenzene)piperazinyl]ethyl]-1,3-dimethyl xanthine HCl] | 44 ± 2.9% | 1.0 ± 0.3 × 10^4 cell/ml | 1.3 ± 0.6 × 10^4 cell/ml | 1.3 ± 0.6 × 10^4 cell/ml | 24 ± 3.5 × 10^4 cell/ml | 24 ± 3.5 × 10^4 cell/ml | 52.1 ± 0.2 × 10^4 cell/ml | 48 ± 7.5% | 44 ± 2.9% | 63 ± 5.2% | 148 ± 7.5% | 45 ± 7.5% | 1.1 ± 0.3 × 10^4 cell/ml | 1.7 ± 2.8 × 10^4 cell/ml | 1.7 ± 2.8 × 10^4 cell/ml | 25 ± 2.5 × 10^4 cell/ml | 25 ± 2.5 × 10^4 cell/ml | 51.2 ± 0.3 × 10^4 cell/ml | 43 ± 1.6% | 
4 | Cl.Cn1c(=O)c2c(ncn2CCN2CCN(c3ccccc3Cl)CC2)n(C)c1=O [KMUP-1 HCl, 7-[2-[4-(2-chlorophenyl)piperazinyl]ethyl]-1,3-dimethylxanthine HCl] | 42 ± 6.3% | 1.0 ± 0.2 × 10^4 cell/ml | 1.5 ± 0.3 × 10^4 cell/ml | 1.5 ± 0.3 × 10^4 cell/ml | 23.7 ± 2.8 × 10^4 cell/ml | 23.7 ± 2.8 × 10^4 cell/ml | 50.6 ± 2.4 × 10^4 cell/ml | 55 ± 14.8% | 42 ± 6.3% | 64 ± 4.5% | 155 ± 14.8% |  |  |  |  |  |  |  |  | IL-13 ([2]; inhalation 5 mM): 14 ± 5 pg/mL; IL-5 ([6]; inhalation 5 mM): 31 ± 6 pg/mL
5 | CCC(C)(C)C(=O)O[C@H]1C[C@@H](C)C=C2C=C[C@H](C)[C@H](CC[C@@H]3C[C@@H](O)CC(=O)O3)[C@H]21 [Simvastatin, reference compound] |  |  |  |  |  |  |  |  |  |  |  | 58 ± 12.4% | 1.5 ± 0.4 × 10^4 cell/ml | 1.8 ± 0.7 × 10^4 cell/ml | 1.8 ± 0.7 × 10^4 cell/ml | 27 ± 1.6 × 10^4 cell/ml | 27 ± 1.6 × 10^4 cell/ml | 52.5 ± 0.4 × 10^4 cell/ml | 41 ± 2.5% | IL-13 ([2]; oral 2.5 mg Kg^−1): 41 ± 2.5 pg/mL; IL-5 ([6]; oral 2.5 mg Kg^−1): 158 ± 12.4 pg/mL
6 | COc1ccccc1N1CCN(CCn2cnc3c2c(=O)n(C)c(=O)n3C)CC1.O=C(O)CC(O)(CC(=O)O)C(=O)O [KMUP-2-citric acid, 7-[2-[4-(2-methoxybenzene)piperazinyl]ethyl]-1,3-dimethylxanthine-Citric acid] |  |  |  |  |  |  |  |  | 40 ± 3.7% | 71 ± 5.4% |  |  |  |  |  |  |  |  |  | 
7 | Cl.Cn1c(=O)c2c(ncn2CCN2CCN(c3ccccc3[N+](=O)[O-])CC2)n(C)c1=O [KMUP-4 HCl, 7-[2-[4-(2-nitrobenzene)piperazinyl]ethyl]-1,3-dimethylxanthine hydrochloride] | 37 ± 2.8% | 1.1 ± 0.2 × 10^4 cell/ml | 1.6 ± 3.4 × 10^4 cell/ml | 1.6 ± 3.4 × 10^4 cell/ml | 21 ± 6.7 × 10^4 cell/ml | 21 ± 6.7 × 10^4 cell/ml | 53.4 ± 0.3 × 10^4 cell/ml | 35 ± 7.5% | 37 ± 2.8% | 73 ± 3.4% | 135 ± 7.5% | 31 ± 6.7% | 1.1 ± 0.3 × 10^4 cell/ml | 1.7 ± 1.8 × 10^4 cell/ml | 1.7 ± 1.8 × 10^4 cell/ml | 20 ± 3.5 × 10^4 cell/ml | 20 ± 3.5 × 10^4 cell/ml | 51.8 ± 0.4 × 10^4 cell/ml | 56 ± 3.4% | 
8 | Cn1c(=O)c2c(ncn2CCN2CCN(c3ccccc3[N+](=O)[O-])CC2)n(C)c1=O.O=C(O)CC(O)(CC(=O)O)C(=O)O [KMUP-4-citric acid, 7-[2-[4-(2-nitrobenzene)piperazinyl]ethyl]-1,3-dimethylxanthine-Citric acid] |  |  |  |  |  |  |  |  | 56 ± 3.4% | 78 ± 3.6% | 131 ± 6.7% |  |  |  |  |  |  |  |  | 
9 | Cn1c(=O)c2c(ncn2CCN2CCN(c3ccccc3Cl)CC2)n(C)c1=O.O=C(O)CC(O)(CC(=O)O)C(=O)O [KMUP-1-citric acid, 7-[2-[4-(2-chlorobenzene)piperazinyl]ethyl]-1,3-dimethylxanthine-Citric acid] |  |  |  |  |  |  |  |  | 43 ± 3.8% | 66 ± 5.2% | 152 ± 13.6% |  |  |  |  |  |  |  |  | 
10 | Cn1c(=O)c2c(ncn2CCN2CCN(c3ccccc3Cl)CC2)n(C)c1=O.O=C(O)c1cccnc1 [KMUP-1-nicotinic acid, 7-[2-[4-(2-chlorobenzene)piperazinyl]ethyl]-1,3-dimethylxanthine-Nicotinic acid] |  |  |  |  |  |  |  |  | 41 ± 2.5% | 62 ± 4.8% | 158 ± 12.4% |  |  |  |  |  |  |  |  | 
